Test results from ChEMBL document CHEMBL1201862, “PubChem BioAssay data set” (2004).
The source made the active and inactive calls.

Key:
[1] = viability loss in HepG2 hepatoma cells – cell-based, cherry-picks, set 5, cytotoxicity control, dose response (AID 1053118); assay type: functional
[2] = viability loss in HEK293 kidney cells – cell-based, cherry-picks, set 5, cytotoxicity control, dose response (AID 1053117); assay type: functional
[3] = viability loss in A549 lung cancer cells – cell-based, cherry-picks, […], cytotoxicity control, dose response (AID 1053119); assay type: functional
[4] = blockers of FN fibrillogenesis by fibroblasts – AH1F cells, Alexa488-FN fluorescence, cherry-picks, dose response (AID 1035475); assay type: functional, cell-based
[5] = molecular target: Kappa-type opioid receptor (Homo sapiens, UniProt P41145); assay: kappa opioid receptor antagonism potency – cell-based, fluorescence, dose response, late-stage follow-up (AID 652032); assay type: functional
Chain of Kappa-type opioid receptor (P41145 whole entry): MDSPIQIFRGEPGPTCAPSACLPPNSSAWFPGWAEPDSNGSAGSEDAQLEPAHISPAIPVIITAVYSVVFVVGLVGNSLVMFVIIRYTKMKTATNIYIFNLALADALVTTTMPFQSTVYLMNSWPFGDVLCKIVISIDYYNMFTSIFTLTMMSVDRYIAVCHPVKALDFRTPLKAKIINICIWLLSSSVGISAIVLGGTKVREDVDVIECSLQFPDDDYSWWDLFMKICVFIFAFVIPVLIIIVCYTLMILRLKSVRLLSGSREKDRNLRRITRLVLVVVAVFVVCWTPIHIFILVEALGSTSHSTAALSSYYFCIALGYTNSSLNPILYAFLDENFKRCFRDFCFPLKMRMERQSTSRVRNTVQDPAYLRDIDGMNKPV

[6] = inhibitors of non-replicating M. tuberculosis, dose response, luciferase, dry powder (AID 651619); assay type: functional; conditions: Mycobacterium tuberculosis
[7] = inhibitors of non-replicating M. tuberculosis, dose response, luciferase, dry powder (AID 651620); assay type: functional; conditions: Mycobacterium tuberculosis
[8] = cervical cancer cell viability loss – HeLa, 24 h, plate reader, powder samples, set 3, cytotoxicity control, dose response (AID 651864); assay type: functional, cell-based
[9] = viability of BHK-21 cells – cell-based, secondary screen, cytotoxicity control for flavivirus guanylyltransferase probe project (AID 624078); assay type: functional
[10] = cytotoxicity in MITF-independent A375 cells – cell-based, CellTiter-Glo luminescence, dry powder, set 4, counter-screen for MITF inhibitor project, dose response (AID 624364); assay type: functional; conditions: A-375;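 also: A375 melanoma cells are MITF independent so this is a counter screen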
[11] = viability loss in MITF-independent A375 cells – cell-based, CellTiter-Glo luminescence, dry powder, set 2, counter-screen for MITF inhibitor project, dose response (AID 624489); assay type: functional; conditions: A-375;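 also: actives are compounds lowering A375 viability meaning general cytotoxicity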
[12] = A549 cell cytotoxicity, dose response, cytotoxicity control, plate reader, cherry-pick, antagonist series (AID 743412); assay type: functional, cell-based
[13] = toxicity toward HepG2 liver cells – cell-based, plate reader, cherry-pick, antagonist series, cytotoxicity control, dose response (AID 743416); assay type: functional
[14] = inhibition of bursicon-driven LGR2 cAMP signaling – cell-based, HEK293, CRE-luciferase reporter, cherry pick, dose response (AID 743342); assay type: functional
[15] = viability loss in HEK293 cells – cell-based, plate reader, cherry-picked samples, cytotoxicity control, dose response (AID 743446); assay type: functional
[16] = mouse embryonic fibroblast toxicity – cell-based, plate reader, dry powder, set 2, cytotoxicity control, dose response (AID 652280); assay type: functional; conditions: NIH3T3
[17] = T. cruzi growth inhibition in host cells, dose response, cell-based, plate reader, dry powder, set 2 (AID 652275); assay type: functional
[18] = growth inhibition of yeast DHODH-expressing 3D7 parasites – SYBR Green, dry powder samples, dose response (AID 1159570); assay type: functional, cell-based;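 also: parasite growth measured after 72 hours of compound exposure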
[19] = toxicity to human HepG2 hepatoma cells – cell-based, plate reader, dry powder samples, cytotoxicity control, dose response (AID 1159569); assay type: functional;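 also: inhibitor potency with signal falling toward the positive control level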
[20] = P. falciparum Dd2 growth inhibitors, dose response, SYBR Green, cherry-picked samples (AID 1159567); assay type: functional, cell-based
[21] = Dd2 malaria parasite growth inhibition potency – SYBR Green, dry powder samples, dose response (AID 1159566); assay type: functional, cell-based;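 also: potency for growth inhibition with lower SYBR green DNA signal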
[22] = growth inhibition of PfATP4-mutant resistant parasites – NITD609-resistant line, SYBR Green, dry powder, dose response (AID 1159571); assay type: functional, cell-based;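 also: parasites synchronized at ring stage by sorbitol before testing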
[23] = Dd2 parasite growth inhibition in erythrocytes – SYBR Green, dry powder samples, set 9, dose response (AID 1159568); assay type: functional, cell-based
[24] = toxicity to human hepatoma HepG2 cells – cell-based, cherry-picked samples, cytotoxicity control, dose response (AID 1159577); assay type: functional

With `CO[C@@H]1CN(C)C(=O)c2ccc(NC(=O)Nc3ccc(Cl)c(Cl)c3)cc2OC[C@@H](C)NC[C@@H]1C` the AC50 [1] was 24.2 µM (active), the AC50 [2] was 20.4 µM (active) and the AC50 [3] was 13.1 µM (active). The AC50 [4] was 36.8 µM (active).
With `COC(=O)c1cc(Br)cnc1N1CCC(OC2CCCCC2O)CC1` (stereo not given) the IC50 [5] was > 50 µM (inactive).
For `O=S(=O)(Cc1ccccc1)c1nnc(-c2ccccc2)o1`, the IC90 [6] was 2 µM (active) and the IC90 [7] was 2 µM (active).
In the case of `CCn1nccc1NCc1ccc(N2CCCC2)cc1`, the AC50 [8] is reported as > 160 µM (inactive).
With `Cn1c(=O)c2[nH]c(-c3ccc(Cl)cc3)c(O)c2n(C)c1=O` the CC50 [9] was > 100 µM (active).
With `C=CCNC1=C(N(C)C(C)=O)C(=O)c2ccccc2C1=O` the AC50 [10] was 8.92 µM (active) and the AC50 [11] was 2.59 µM (active).
For `C[C@H]1CCCCO[C@@H](CN(C)C(=O)Nc2ccc(C(F)(F)F)cc2)[C@@H](C)CN([C@@H](C)CO)C(=O)c2cc(NC(=O)CCC(F)(F)F)ccc2O1`, the AC50 [12] was 31 µM (active), the AC50 [13] was > 52 µM (inactive) and the AC50 [14] was 4.55 µM (active). For the same molecule, the AC50 [15] was > 52 µM (inactive).
With `O=C(C1CC1)N1CCCCN2[C@@H](CO)[C@H](c3ccc(-c4cccc(F)c4)cc3)[C@@H]2C1` the AC50 [16] was 26.7 µM (active) and the AC50 [17] was 0.312 µM (active).
In the case of `CCCN(C)C[C@@H]1Oc2cc(C#Cc3cccnc3)ccc2S(=O)(=O)N([C@@H](C)CO)C[C@H]1C`, the AC50 [18] is reported as 3.59 µM (active), the AC50 [19] is reported as 79.5 µM (active) and the AC50 [20] is reported as 2.13 µM (active). The AC50 [21] was 2.62 µM (active) and the AC50 [22] was 2.99 µM (active).
In the case of `C[C@@H]1CCCCO[C@H](CN(C)S(=O)(=O)c2ccccc2)[C@@H](C)CN([C@@H](C)CO)C(=O)c2cc(NC(=O)Nc3ccc4c(c3)OCO4)ccc2O1`, the AC50 [23] is reported as 1.64 µM (active).
With `CCS(=O)(=O)N1CC2(C1)[C@@H](c1ccccc1)[C@H](CO)N2Cc1ccc(F)cc1` the AC50 [20] was 6 µM (active) and the AC50 [24] was > 39 µM (inactive).
